# Test results: patent US20090036448A1, “PYRIMIDINE DERIVATIVES AND METHODS OF TREATMENT RELATED TO THE USE THEREOF” (TAISHO PHARMECUTICAL CO., LTD., priority 2004, published 2009)
# Target: MCH receptor (Homo sapiens, UniProt Q99705)
# Assay: Receptor binding assay with Radiolabelled MCH Ligand
# Design: expressed in transfected cells; host or cells: 293 cells (human kidney, ATCC), transient transfection; crude membranes
# Conditions: class by percent of control at 10^-7 M or IC50
# In short: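 Membranes from 293 cells transiently transfected with human MCH receptor competed test compounds against a radiolabelled MCH ligand in Tris-HCl pH 7.4 with MgCl2 and EDTA for 60–120 min at room temperature. Filtration and scintillation counting followed, with cold MCH defining nonspecific binding. IC50 came from logit-log plots of %B/B0, and Ki from the Cheng-Prusoff equation.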
# Sequence of MCH receptor (Q99705 whole entry): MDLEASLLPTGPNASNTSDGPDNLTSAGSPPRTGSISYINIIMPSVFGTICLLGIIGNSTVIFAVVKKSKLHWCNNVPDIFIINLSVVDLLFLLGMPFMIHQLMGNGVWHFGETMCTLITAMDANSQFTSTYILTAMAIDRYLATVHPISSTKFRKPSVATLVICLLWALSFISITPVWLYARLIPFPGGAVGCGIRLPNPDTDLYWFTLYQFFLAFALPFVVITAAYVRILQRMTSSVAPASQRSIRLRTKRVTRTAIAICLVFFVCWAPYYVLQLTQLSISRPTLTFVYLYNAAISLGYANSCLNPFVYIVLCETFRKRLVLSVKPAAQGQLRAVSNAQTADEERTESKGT
row,SMILES,class
1,Cc1nc(N[C@H]2CC[C@@H](NC(=O)CSc3ccncc3)CC2)cc(N(C)C)n1 [compound 302],3 (Class 3: The value of percent of control at 10^−7 M was more than 60% or the value of IC50 was more than 200 nM.)
2,Cc1nc(N[C@H]2CC[C@@H](NC(=O)Cc3ccccc3I)CC2)cc(N(C)C)n1 [compound 287],3 (Class 3: The value of percent of control at 10^−7 M was more than 60% or the value of IC50 was more than 200 nM.)
3,"Cc1nc(N[C@H]2CC[C@@H](NC(=O)C3CCCC3)CC2)cc(N(C)C)n1 [compound 253, N-(cis-4-{[6-(dimethylamino)-2-methylpyrimidin-4-yl]amino}cyclohexyl)cyclopentanecarboxamide]",3 (Class 3: The value of percent of control at 10^−7 M was more than 60% or the value of IC50 was more than 200 nM.)
4,Cc1nc(N[C@H]2CC[C@@H](NS(=O)(=O)c3ccc(-c4ccccc4)cc3)CC2)cc(N(C)C)n1 [compound 489],3 (Class 3: The value of percent of control at 10^−7 M was more than 60% or the value of IC50 was more than 200 nM.)
5,Cc1nc(N[C@H]2CC[C@@H](NCC3(c4ccc(Cl)cc4)CCCC3)CC2)cc(N(C)C)n1 [compound 365],3 (Class 3: The value of percent of control at 10^−7 M was more than 60% or the value of IC50 was more than 200 nM.)
6,CC(=O)c1ccc(C(=O)N[C@H]2CC[C@@H](Nc3cc(N(C)C)nc(C)n3)CC2)s1 [compound 344],3 (Class 3: The value of percent of control at 10^−7 M was more than 60% or the value of IC50 was more than 200 nM.)
7,Cc1nc(N[C@H]2CC[C@@H](NC(=O)Cc3sc(-c4ccccc4)nc3-c3ccc(Cl)cc3)CC2)cc(N(C)C)n1 [compound 335],3 (Class 3: The value of percent of control at 10^−7 M was more than 60% or the value of IC50 was more than 200 nM.)
8,CSc1sc(C(=O)N[C@H]2CC[C@@H](Nc3cc(N(C)C)nc(C)n3)CC2)c(Cl)c1S(=O)(=O)C(C)C [compound 345],3 (Class 3: The value of percent of control at 10^−7 M was more than 60% or the value of IC50 was more than 200 nM.)
9,CCCCCCCCS(=O)(=O)N[C@H]1CC[C@@H](Nc2cc(N(C)C)nc(C)n2)CC1 [compound 480],3 (Class 3: The value of percent of control at 10^−7 M was more than 60% or the value of IC50 was more than 200 nM.)
10,Cc1cccc(NC(=O)c2ccccc2C(=O)N[C@H]2CC[C@@H](Nc3cc(N(C)C)nc(C)n3)CC2)c1 [compound 319],3 (Class 3: The value of percent of control at 10^−7 M was more than 60% or the value of IC50 was more than 200 nM.)
11,Cc1nc(N[C@H]2CC[C@@H](NS(=O)(=O)c3cccc(C(F)(F)F)c3)CC2)cc(N(C)C)n1 [compound 483],3 (Class 3: The value of percent of control at 10^−7 M was more than 60% or the value of IC50 was more than 200 nM.)
12,Cc1nc(N[C@H]2CC[C@@H](NCc3ccc(-c4ccccc4)cc3)CC2)cc(N(C)C)n1 [compound 355],3 (Class 3: The value of percent of control at 10^−7 M was more than 60% or the value of IC50 was more than 200 nM.)
13,Cc1nc(N[C@H]2CC[C@@H](NCc3ccc4ccccc4c3)CC2)cc(N(C)C)n1 [compound 378],3 (Class 3: The value of percent of control at 10^−7 M was more than 60% or the value of IC50 was more than 200 nM.)
14,Cc1nc(N[C@H]2CC[C@@H](NC(=O)Oc3cccc(C(F)(F)F)c3)CC2)cc(N(C)C)n1 [compound 454],3 (Class 3: The value of percent of control at 10^−7 M was more than 60% or the value of IC50 was more than 200 nM.)
15,Cc1nc(N[C@H]2CC[C@@H](NS(=O)(=O)c3cccc(C#N)c3)CC2)cc(N(C)C)n1 [compound 499],3 (Class 3: The value of percent of control at 10^−7 M was more than 60% or the value of IC50 was more than 200 nM.)
16,CCCCCCCOc1ccc(C(=O)N[C@H]2CC[C@@H](Nc3cc(N(C)C)nc(C)n3)CC2)cc1 [compound 251],3 (Class 3: The value of percent of control at 10^−7 M was more than 60% or the value of IC50 was more than 200 nM.)
17,Cc1nc(N[C@H]2CC[C@@H](NC(=O)OCC(Cl)(Cl)Cl)CC2)cc(N(C)C)n1 [compound 470],3 (Class 3: The value of percent of control at 10^−7 M was more than 60% or the value of IC50 was more than 200 nM.)
18,Cc1nc(N[C@H]2CC[C@@H](NC(=O)CN3C(=O)c4ccccc4C3=O)CC2)cc(N(C)C)n1 [compound 274],3 (Class 3: The value of percent of control at 10^−7 M was more than 60% or the value of IC50 was more than 200 nM.)
19,Cc1nc(N[C@H]2CC[C@@H](NC(=O)c3ccccc3I)CC2)cc(N(C)C)n1 [compound 224],3 (Class 3: The value of percent of control at 10^−7 M was more than 60% or the value of IC50 was more than 200 nM.)

row,SMILES,class
1,Cc1nc(N[C@H]2CC[C@@H](NC(=O)/C=C/c3ccc([N+](=O)[O-])cc3)CC2)cc(N(C)C)n1 [compound 263],3 (Class 3: The value of percent of control at 10^−7 M was more than 60% or the value of IC50 was more than 200 nM.)
2,Cc1nc(N[C@H]2CC[C@@H](NC(=O)/C=C/c3ccc(OC(F)(F)F)cc3)CC2)cc(N(C)C)n1 [compound 269],3 (Class 3: The value of percent of control at 10^−7 M was more than 60% or the value of IC50 was more than 200 nM.)
3,Cc1nc(N[C@H]2CC[C@@H](NC(=O)C3CCCC[C@@H]3NC(=O)c3ccccc3)CC2)cc(N(C)C)n1 (some centres unmarked) [compound 276],3 (Class 3: The value of percent of control at 10^−7 M was more than 60% or the value of IC50 was more than 200 nM.)
4,Cc1nc(N[C@H]2CC[C@@H](NC(=O)CSc3ccccc3)CC2)cc(N(C)C)n1 [compound 246],3 (Class 3: The value of percent of control at 10^−7 M was more than 60% or the value of IC50 was more than 200 nM.)
5,COc1ccc(OC)c(NC(=O)Cc2ccccc2C(=O)N[C@H]2CC[C@@H](Nc3cc(N(C)C)nc(C)n3)CC2)c1 [compound 295],3 (Class 3: The value of percent of control at 10^−7 M was more than 60% or the value of IC50 was more than 200 nM.)
6,Cc1nc(N[C@H]2CC[C@@H](NC(=O)Nc3c(Br)cc(C(C)C)cc3Br)CC2)cc(N(C)C)n1 [compound 423],3 (Class 3: The value of percent of control at 10^−7 M was more than 60% or the value of IC50 was more than 200 nM.)
7,Cc1nc(N[C@H]2CC[C@@H](NC(=O)c3cnn(-c4ccccc4)c3C(F)(F)F)CC2)cc(N(C)C)n1 [compound 238],3 (Class 3: The value of percent of control at 10^−7 M was more than 60% or the value of IC50 was more than 200 nM.)
8,Cc1nc(N[C@H]2CC[C@@H](NC(=O)c3snnc3C)CC2)cc(N(C)C)n1 [compound 229],3 (Class 3: The value of percent of control at 10^−7 M was more than 60% or the value of IC50 was more than 200 nM.)
9,Cc1nc(N[C@H]2CC[C@@H](NS(=O)(=O)c3ccc(Cl)c(Cl)c3)CC2)cc(N(C)C)n1 [compound 502],3 (Class 3: The value of percent of control at 10^−7 M was more than 60% or the value of IC50 was more than 200 nM.)
10,"Cc1nc(N[C@H]2CC[C@@H](NS(=O)(=O)Cc3ccc(F)cc3)CC2)cc(N(C)C)n1 [compound 474, N-(cis-4-{[6-(dimethylamino)-2-methylpyrimidim-4-yl]amino}cyclohexyl)-1-(4-fluorophenyl)methanesulfonamide]",3 (Class 3: The value of percent of control at 10^−7 M was more than 60% or the value of IC50 was more than 200 nM.)
11,Cc1nc(N[C@H]2CC[C@@H](NS(=O)(=O)C(C)C)CC2)cc(N(C)C)n1 [compound 479],3 (Class 3: The value of percent of control at 10^−7 M was more than 60% or the value of IC50 was more than 200 nM.)
12,Cc1nc(N[C@H]2CC[C@@H](NCc3ccc(F)cc3C(F)(F)F)CC2)cc(N(C)C)n1 [compound 394],3 (Class 3: The value of percent of control at 10^−7 M was more than 60% or the value of IC50 was more than 200 nM.)
13,Cc1nc(N[C@H]2CC[C@@H](NC(=O)CSCc3ccccc3)CC2)cc(N(C)C)n1 [compound 336],3 (Class 3: The value of percent of control at 10^−7 M was more than 60% or the value of IC50 was more than 200 nM.)
14,"Cc1nc(N[C@H]2CC[C@@H](NC(=O)c3ccccc3)CC2)cc(N(C)C)n1 [compound 200, N-(cis-4-{[6-(dimethylamino)-2-methylpyrimidin-4-yl]amino}cyclohexyl)benzamide]",2 (Class 2: The value of percent of control at 10^−7 M was from 40% to 60% or the value of IC50 was from 50 nM to 200 nM.)
15,"COc1cc(NC(=S)N[C@H]2CC[C@@H](Nc3cc(N(C)C)nc(C)n3)CC2)cc(OC)c1OC [compound 442, N-(cis-4-{[6-(dimethylamino)-2-methylpyrimidin-4-yl]amino}cyclohexyl)-N′-(3,4,5-trimethoxyphenyl)thiourea]",1 (Class 1: The value of percent of control at 10^−7 M was less than 40% or the value of IC50 was less than 50 nM.)
16,CCCCCCCCCc1ccc(CN[C@H]2CC[C@@H](Nc3cc(N(C)C)nc(C)n3)CC2)cc1 [compound 399],3 (Class 3: The value of percent of control at 10^−7 M was more than 60% or the value of IC50 was more than 200 nM.)
17,"COc1cc(NC(=O)N[C@H]2CC[C@@H](Nc3cc(N(C)C)nc(C)n3)CC2)cc(OC)c1OC [compound 425, N-(cis-4-{[6-(dimethylamino)-2-methylpyrimidin-4-yl]amino}cyclohexyl)-N′-(3,4,5-trimethoxyphenyl)urea]",1 (Class 1: The value of percent of control at 10^−7 M was less than 40% or the value of IC50 was less than 50 nM.)
18,Cc1nc(N[C@H]2CC[C@@H](NCc3ccccc3I)CC2)cc(N(C)C)n1 [compound 375],3 (Class 3: The value of percent of control at 10^−7 M was more than 60% or the value of IC50 was more than 200 nM.)
19,Cc1nc(N[C@H]2CC[C@@H](NCc3ccc(F)cc3)CC2)cc(N(C)C)n1 [compound 372],3 (Class 3: The value of percent of control at 10^−7 M was more than 60% or the value of IC50 was more than 200 nM.)
